In patent US8476408B2, “Unacylated ghrelin and analogs as therapeutic agents for vascular remodeling in diabetic patients and treatment of cardiovascular disease” (Alize Pharma SAS, priority 2008, dated 2013):
Where no end group is shown, it is not given here. The star is where a group is joined. Octanoyl = CCCCCCCC(=O)*

Tests used:
[1] = tested on: CAC; experiment: Detection of ROS in CAC (DCF-DA assay, FACS); type: cell-based, human; settings: for baseline level of ROS production: compared to untreated cells, FIG. 1B, 1E
Method: Peripheral-blood mononuclear cells (PB-MNC) isolated by Fycoll Histopaque 1077 (Sigma) were resuspended in 20% FBS 199 Medium and plated on fibronectin-coated dishes (Biocoat, Becton Dickinson Labware) as described by Hill et al. (Ref. 19). Human UAG studies were performed on CAC recovered from normal donors and diabetic patients. The purity of sorted cells was assessed by FACS analysis (Ref. 20). For experiments, the isolated CAC were cultured under 5% CO2 at 37° C. for 4 days on 20 μg/ml fibronectin-coated dishes in EGM-2 medium containing 10% FBS, hydrocortisone, human Fibroblast Growth Factor, Vascular Endothelial Growth Factor, Insulin Growth Factor 1, ascorbic acid, human Epidermal Growth Factor, gentamicin and amphotericin-B (Cambrex, Walkersville, Md., USA) alone or in combination with 1 μM UAG and 1.2 mg/ml AGE. In selected experiments, isolated CAC were cultured in EBM-2 medium (Cambrex, Walkersville, Md., USA) supplemented with 10 ng/ml of IL-3. FACS was used to analyze their phenotype (anti-CD45, anti-CD31, anti-CD105, anti-CD14 antibodies were used) (Ref. 22).
Detection of ROS—DCF-DA (0.5 μM final concentration) was added to CAC in the indicated culture conditions. At the indicated times, the cells were subjected to FACS analysis and processed as previously described (Ret. 22). H2O2 was used as positive control.

[2] = tested on: cardiomyocytes; settings: Ref. 8; cited from earlier work
[3] = tested on: CAC; experiment: CAC mobilization assay in healthy subjects and diabetic patients; type: in vivo, human; settings: diabetic patients compared to normal subjects, 6 hours treatment; FIG. 3B
Method: All the subjects underwent the following testing session: • UAG (3.0 μg/kg/h iv. as infusion for 12 h from 0 to 12 hours); • isotonic saline (infusion from 0 to 12 hours).
All tests were performed starting at 08.30-09.00 a.m. after overnight fasting, 30 minutes after an indwelling catheter had been placed into a forearm vein by slow infusion of isotonic saline. Blood samples were taken at 0 h, 6 h and 12 h.
Mobilization assay—CAC recovered from healthy subjects and diabetic patients, treated with UAG or saline for 6 h and 12 h, were evaluated. Total number of MNC was counted by 3 independent investigators. The percentage of CAC was calculated by comparing CAC obtained from diabetic patients and healthy donors, treated for 6 h and 12 h with UAG, AG or saline, to CAC recovered at time 0.

[4] = tested on: human umbilical vein endothelial cells (HUVECs); settings: Ref. 5; cited from earlier work
[5] = tested on: human microvascular endothelial cells (HMVECs); settings: Ref. 4; cited from earlier work
[6] = tested on: human arteries; settings: Ref. 35; cited from earlier work
[7] = tested on: HIT-T15 β-cells; experiment: Survival of cytokine-treated HIT-T15 β-cells (MTT); type: cell-based; settings: cytokines (IFN-γ/TNF-α/IL-1β), peptides 1 nM to 100 nM
Method: The survival effect of UAG (6-13) (SEQ ID NO: 6), UAG (8-13) (SEQ ID NO: 7), UAG (8-12) (SEQ ID NO: 8), UAG (8-11) (SEQ ID NO: 12), UAG (9-12) (SEQ ID NO: 9) and UAG (9-11) (SEQ ID NO: 10) was assessed in cytokine-treated HIT-T15 β-cells. […] The protective effects of peptides UAG (8-13) (SEQ ID NO: 7) and UAG (8-12) (SEQ ID NO: 8) were found similar to those of UAG (1-14) (SEQ ID NO: 2) and UAG (1-18) (SEQ ID NO: 3). A peptide made of the inverse sequence of UAG (1-14) (SEQ ID NO: 2) and named UAG (14-1) (SEQ ID NO: 11), was used as negative control for these experiments. […] These effects were however lower than those of UAG (6-13) (SEQ ID NO: 6).

[8] = tested on: CAC membranes; experiment: Competition binding with [125I-Tyr4]-UAG on CAC membranes; design: species or system human; settings: 100 nM unlabelled competitor, radioligand 0.25 nM; FIG. 5A
Source text: The specific binding of [^125I-Tyr^4]-UAG (calculated as difference between binding in the absence, control, and in the presence of UAG) represented about 75% of the control value (P<0.001) and was detected either on fresh (0.25 and 0.26 fmol) or frozen-thawed (0.20 and 0.33 fmol) CAC membranes from two different cell preparations.

[9] = tested on: cloned cells; settings: cited from earlier work
[10] = tested on: GH secretion; settings: compared with Ghrelin-28; cited from earlier work

Substance: AG: 28 amino acid peptide with an n-octanoyl modification on the Ser3 residue; endogenous ligand of GHSR (GSS(Octanoyl)FLSPEHQRVQQRKESKKPPAKLQPR; listed as Homo sapiens) [reference compound]
- baseline level of ROS production [1]: A protective effect failed to be detected
- experimentally-induced cell death [2]: inhibit experimentally-induced cell death
- number of recovered CAC [3]: No statistical differences
- basal and TNF-α-induced chemotactic cytokine production and mononuclear cell adhesion [4]: inhibit basal and TNF-α-induced chemotactic cytokine production and mononuclear cell adhesion
- cell proliferation, migration, in vitro angiogenesis and ERK2 phosphorylation [5]: significantly increased cell proliferation, migration, in vitro angiogenesis and ERK2 phosphorylation
- vasodilator action [6]: vasodilator actions

Substance: EHQRVQ [UAG (8-13)]
- survival effect on cytokine-induced cell death [7]: significant protective effect at all the concentrations examined

Substance: GSSFLSPEHQRVQQ [UAG (1-14)]
- survival effect on cytokine-induced cell death [7]: similar

Substance: GSSFLSPEHQRVQQRKES [UAG (1-18)]
- survival effect on cytokine-induced cell death [7]: similar

Substance: Glu-His-Gln-Arg-Val (EHQRV; listed as Homo sapiens) [UAG (8-12)]
- survival effect on cytokine-induced cell death [7]: significant, although reduced protection, only at 10 nM and 100 nM

Substance: Ser-Pro-Glu-His-Gln-Arg-Val-Gln (SPEHQRVQ; not fully specified (C-terminus); printed as Ser-Pro-Glu-His-Gln-Arg-Val-Gln; listed as Homo sapiens) [UAG (6-13)]
- inhibition of binding of [125I-Tyr4]-UAG to CAC membranes [8]: inhibited
- level of ROS production in AGE-cultured cells ([1]; AGE-cultured CAC, FIG. 1C, 1F): reduced
- baseline level of ROS production [1]: also reduces the baseline level of ROS production
- survival effect on cytokine-induced cell death [7]: potently inhibited cytokine-induced cell death

Substance: UAG (8-11): fragment of unacylated ghrelin, residues 8 to 11 of SEQ ID NO: 1 (EHQR; listed as Homo sapiens)
- survival effect on cytokine-induced cell death [7]: significant survival effect only at 100 nM

Substance: UAG (9-11): fragment of unacylated ghrelin, residues 9 to 11 of SEQ ID NO: 1 (HQR)
- survival effect on cytokine-induced cell death [7]: no significant effect at both concentrations tested

Substance: UAG (9-12): fragment of unacylated ghrelin, residues 9 to 12 of SEQ ID NO: 1 (HQRV; listed as Homo sapiens)
- survival effect on cytokine-induced cell death [7]: significantly increased cell survival at both the concentrations tested

Substance: des Gln-14 Ghrelin: isoform of ghrelin-28, a 27 amino acid peptide possessing serine 3 modification by n-octanoic acid (GSS(Octanoyl)FLSPEHQRVQRKESKKPPAKLQPR; listed as Homo sapiens)
- Ca2+ fluxes [9]: elicits Ca^2+ fluxes in cloned cells
- GH secretion [10]: induces GH secretion with similar potency as Ghrelin-28
